Measurements reported in patent US20240301319A1, “PERFUMING COMPOSITIONS” (FIRMNICH SA, priority 2017, published 2024).
Where a name gives a salt, the structure may show the parent alone.

Assays:
[1] = Volatility of perfuming compounds (Tables 4 to 10), with top/middle/bottom note type; assay type: physicochemical
In short: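 Note type follows from air volatility (μg/l): bottom 49–0.1, middle 99–50, top 70,000–100. Compounds are listed within watery, green, fruity, citrus, sweet, gourmand and woody families.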

[2] = Odor threshold and odor value of perfuming compounds (Tables 4 to 10)
[3] = Log P (n-octanol/water) of perfuming compounds (Tables 4 to 10)
[4] = note type (Top/Middle/Bottom) by volatility, perfuming compounds having a green note
[5] = perfuming compounds having a green note
[6] = n-octanol/water, perfuming compounds having a green note
[7] = Table 8, perfuming compounds having a sweet note
[8] = Table 8, perfuming compounds having a sweet note, note type by volatility
[9] = Table 6, perfuming compounds having a fruity note
[10] = Table 6, perfuming compounds having a fruity note, note type by volatility
[11] = Table 10, perfuming compounds having a woody note, note type by volatility

SMILES	Type [1, 4]	Volatility (μg/l air) [1, 5] [μg/l air]	Odor Threshold (μg/l air) [2, 5] [μg/l air]	Log P (n-octanol/water) [3, 6]	Volatility [1, 9] [μg/l air]	Type [1, 10]	Log P (n-octanol/water) [3, 9]	other results
c1ccc(CCCc2ccccn2)cc1 [2-(3-PHENYLPROPYL)PYRIDINE]	Bottom	3.83	1.29E−06	2.87	–	–	–	–
CC(=O)C(C)O (racemic) [(+−)-3-HYDROXY-2-BUTANONE]	Top	33382.87	1.46E−02	−1.03	–	–	–	Volatility [1, 7]: 33382.87 μg/l air; Type [1, 8]: Top; Volatility ([1]; Table 9, gourmand note): 33382.87 μg/l air; Type ([1]; Table 9, perfuming compounds having a gourmand note, note type by volatility): Top; Odor Threshold [2, 7]: 1.46E−02 μg/l air; Odor Value [2, 7]: 2.28E+06; Odor Threshold ([2]; Table 9, gourmand note): 1.46E−02 μg/l air; Log P (n-octanol/water) [3, 7]: −1.03; Log P (n-octanol/water) ([3]; Table 9, gourmand note): −1.03
CCCC(C)C(=O)OCC (racemic) [(+−)-ETHYL 2-METHYLPENTANOATE]	Top	35090.18	3.84E−05	3.05	35090.18	TOP (perfuming compounds having a volatility ranging from 70,000 to 100 μg/l in air are referred to as “top notes”)	3.05	–
C=C(C)C1CC=C(C)CC1 (single isomer, unassigned; (+)) [(+)-LIMONENE]	–	–	–	–	10216.93	TOP (perfuming compounds having a volatility ranging from 70,000 to 100 μg/l in air are referred to as “top notes”)	5.40	Volatility (μg/l air) ([1]; Table 7, citrus note): 10216.93 μg/l air; Type ([1]; Table 7, citrus note, top, middle or bottom note): Top; Odor Threshold (μg/l air) ([2]; Table 7, citrus note): 1.29E−01 μg/l air; Odor Value ([2]; Table 7, citrus note, equals volatility divided by odor threshold): 7.92E+04; Log P (n-octanol/water) ([3]; Table 7, citrus note): 5.40
C=CCOC(=O)COc1ccccc1 [ALLYL PHENOXYACETATE]	Bottom	9.94	1.22E−03	2.04	9.94	Bottom	2.04	Odor Threshold [2, 9]: 1.22E−03 μg/l air; Odor Value [2, 9]: 8.13E+03
CCC(C)C1(C)COC(C2CCC(C)=CC2C)OC1 (stereo not shown)	–	–	–	–	–	–	–	Type [1, 11]: Bottom; Volatility ([1]; Table 10, woody note): 3.82 μg/l air; Odor Threshold ([2]; Table 10, woody note): 1.67E−03 μg/l air; Log P (n-octanol/water) ([3]; Table 10, woody note): 6.50
COC(=O)OC1CC/C=C\CCC1 (racemic)	Top	278.83	3.69E−04	3.02	–	–	–	–
Cc1ccc(OCC=O)cc1	Middle	89.41	6.46E−05	1.99	–	–	–	–
O=COCc1ccccc1 [BENZYL FORMATE]	Top	1339.53	3.23E−01	1.76	–	–	–	–
COCCc1ccccc1 [(2-METHOXYETHYL)BENZENE]	Top	1239.07	6.32E−04	2.33	–	–	–	–
CCCCCCCCCCO [1-DECANOL]	Bottom	31.90	1.13E−02	4.10	–	–	–	–
N#C/C=C/c1ccccc1 [(E)-3-PHENYL-2-PROPENENITRILE]	–	–	–	–	–	–	–	Type [1, 11]: Middle; Volatility ([1]; Table 10, woody note): 66.00 μg/l air; Odor Threshold ([2]; Table 10, woody note): 8.97E−05 μg/l air; Log P (n-octanol/water) ([3]; Table 10, woody note): 1.98
CC(=O)CCc1ccccc1 [4-PHENYL-2-BUTANONE]	Top	176.55	2.22E−04	1.79	176.55	TOP (perfuming compounds having a volatility ranging from 70,000 to 100 μg/l in air are referred to as “top notes”)	1.79	–
CC(=O)CCc1ccc(O)cc1 [4-(4-HYDROXY-1-PHENYL)-2-BUTANONE]	–	–	–	–	0.36	Bottom	0.93	Odor Threshold [2, 9]: 2.05E−07 μg/l air; Odor Value [2, 9]: 1.75E+06
CCC(C)C(=O)OCCc1ccccc1 (racemic) [(+−)-2-PHENYLETHYL 2-METHYLBUTANOATE]	–	–	–	–	37.73	Bottom	3.64	Odor Threshold [2, 9]: 8.56E−03 μg/l air; Odor Value [2, 9]: 4.41E+03
CC(CC=O)c1ccccc1 (racemic) [(+−)-3-PHENYLBUTANAL]	Top	227.83	3.89E−04	2.34	–	–	–	–
COC(Cc1ccccc1)OC [(2,2-DIMETHOXYETHYL)BENZENE]	Top	456.97	4.55E−02	2.10	–	–	–	–
SCc1ccco1 [2-FURANMETHANETHIOL]	–	–	–	–	–	–	–	Volatility [1, 7]: 29677.31 μg/l air; Type [1, 8]: Top; Odor Threshold [2, 7]: 1.43E−09 μg/l air; Odor Value [2, 7]: 2.08E+13; Log P (n-octanol/water) [3, 7]: 1.70
CC/C=C\CCOC(=O)C(C)CC (racemic) [(+−)-(Z)-3-HEXENYL 2-METHYLBUTANOATE]	Top	833.05	1.96E−02	3.84	833.05	TOP (perfuming compounds having a volatility ranging from 70,000 to 100 μg/l in air are referred to as “top notes”)	3.84	–
